Test results from ChEMBL document CHEMBL3991601, “The target landscape of clinical kinase drugs” (Science, 2017).
Calls of active or inactive are those of the source. Rule as the data show it, for most assays here: actives have a measured Kd and inactives only a lower limit.

Legend:
[1] = biological target: Bone morphogenetic protein receptor type-1B (Homo sapiens, UniProt O00238)
[2] = biological target: Citron Rho-interacting kinase (Homo sapiens, UniProt O14578)
Ephrin type-A receptor 7 = Ephrin type-A receptor 7 (Homo sapiens, UniProt Q15375)
Ephrin type-B receptor 4 = biological target: T1, Ephrin type-B receptor 4 (Homo sapiens, UniProt P54760)
T1 sequence (P54760 whole entry): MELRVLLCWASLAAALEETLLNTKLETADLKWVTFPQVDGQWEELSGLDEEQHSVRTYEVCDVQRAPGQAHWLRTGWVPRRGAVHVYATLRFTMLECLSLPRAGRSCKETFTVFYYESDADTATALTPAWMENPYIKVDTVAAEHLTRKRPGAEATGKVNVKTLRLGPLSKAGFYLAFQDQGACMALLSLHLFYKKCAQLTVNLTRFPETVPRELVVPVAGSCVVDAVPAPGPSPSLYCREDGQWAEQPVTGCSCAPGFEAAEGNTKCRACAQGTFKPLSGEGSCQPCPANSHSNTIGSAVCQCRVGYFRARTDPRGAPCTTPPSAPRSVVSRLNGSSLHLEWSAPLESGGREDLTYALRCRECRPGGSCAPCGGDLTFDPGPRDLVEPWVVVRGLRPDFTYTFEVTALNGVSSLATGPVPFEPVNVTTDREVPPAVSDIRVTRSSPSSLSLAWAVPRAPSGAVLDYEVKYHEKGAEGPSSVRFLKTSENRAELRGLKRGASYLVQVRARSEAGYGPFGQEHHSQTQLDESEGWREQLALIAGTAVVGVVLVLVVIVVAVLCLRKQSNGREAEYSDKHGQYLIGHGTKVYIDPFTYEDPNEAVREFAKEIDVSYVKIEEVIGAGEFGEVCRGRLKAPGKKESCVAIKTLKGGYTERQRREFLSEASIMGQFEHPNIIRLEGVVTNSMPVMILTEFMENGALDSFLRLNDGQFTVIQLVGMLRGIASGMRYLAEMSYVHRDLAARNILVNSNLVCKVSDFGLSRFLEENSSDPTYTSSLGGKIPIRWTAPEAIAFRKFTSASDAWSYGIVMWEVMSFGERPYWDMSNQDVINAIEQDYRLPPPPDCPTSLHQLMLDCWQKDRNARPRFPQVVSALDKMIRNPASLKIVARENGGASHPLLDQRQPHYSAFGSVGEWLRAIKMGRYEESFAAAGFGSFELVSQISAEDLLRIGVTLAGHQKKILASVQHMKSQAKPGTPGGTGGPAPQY

[3] = biological target: Dual specificity mitogen-activated protein kinase kinase 2 (Homo sapiens, UniProt P36507)
Dual specificity mitogen-activated protein kinase kinase 2, sequence (P36507 whole entry): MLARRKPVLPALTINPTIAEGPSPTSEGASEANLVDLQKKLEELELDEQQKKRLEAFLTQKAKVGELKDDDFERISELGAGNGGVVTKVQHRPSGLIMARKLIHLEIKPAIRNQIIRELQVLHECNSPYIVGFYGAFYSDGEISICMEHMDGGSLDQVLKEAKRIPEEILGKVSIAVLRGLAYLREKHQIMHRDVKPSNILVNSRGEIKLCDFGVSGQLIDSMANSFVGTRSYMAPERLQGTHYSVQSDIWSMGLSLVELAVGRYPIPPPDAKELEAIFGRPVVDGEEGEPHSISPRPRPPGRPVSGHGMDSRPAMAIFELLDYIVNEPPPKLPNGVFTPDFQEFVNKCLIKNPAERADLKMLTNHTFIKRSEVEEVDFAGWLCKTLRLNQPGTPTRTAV

[4] = biological target: Mitogen-activated protein kinase 3 (Homo sapiens, UniProt P27361)
Mitogen-activated protein kinase 3, sequence (P27361 whole entry): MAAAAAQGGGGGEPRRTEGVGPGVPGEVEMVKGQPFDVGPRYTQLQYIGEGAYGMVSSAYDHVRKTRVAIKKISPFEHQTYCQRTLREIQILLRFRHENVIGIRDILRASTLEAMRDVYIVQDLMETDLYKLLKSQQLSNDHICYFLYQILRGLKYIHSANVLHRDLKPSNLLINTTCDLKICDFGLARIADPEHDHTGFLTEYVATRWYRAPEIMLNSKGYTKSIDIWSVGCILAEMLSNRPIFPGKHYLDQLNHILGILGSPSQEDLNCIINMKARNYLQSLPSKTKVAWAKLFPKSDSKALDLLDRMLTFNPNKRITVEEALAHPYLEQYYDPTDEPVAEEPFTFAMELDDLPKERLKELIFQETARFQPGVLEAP

[5] = biological target: Mitogen-activated protein kinase 9 (Homo sapiens, UniProt P45984)
Mitogen-activated protein kinase 9, sequence (P45984 whole entry): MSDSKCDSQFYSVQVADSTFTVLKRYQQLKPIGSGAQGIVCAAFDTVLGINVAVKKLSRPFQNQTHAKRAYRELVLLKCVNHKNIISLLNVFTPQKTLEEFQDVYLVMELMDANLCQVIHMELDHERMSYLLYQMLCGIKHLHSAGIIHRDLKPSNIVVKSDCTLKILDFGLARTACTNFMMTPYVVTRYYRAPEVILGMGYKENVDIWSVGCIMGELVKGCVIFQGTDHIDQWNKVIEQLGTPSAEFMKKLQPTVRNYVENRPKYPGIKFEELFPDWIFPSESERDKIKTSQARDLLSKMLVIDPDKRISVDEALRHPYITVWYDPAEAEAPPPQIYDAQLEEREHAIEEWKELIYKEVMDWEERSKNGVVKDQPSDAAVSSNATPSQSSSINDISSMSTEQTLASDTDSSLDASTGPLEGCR

Rab-like protein 3 = biological target: T2, Rab-like protein 3 (Homo sapiens, UniProt Q5HYI8)
T2 sequence (Q5HYI8 whole entry): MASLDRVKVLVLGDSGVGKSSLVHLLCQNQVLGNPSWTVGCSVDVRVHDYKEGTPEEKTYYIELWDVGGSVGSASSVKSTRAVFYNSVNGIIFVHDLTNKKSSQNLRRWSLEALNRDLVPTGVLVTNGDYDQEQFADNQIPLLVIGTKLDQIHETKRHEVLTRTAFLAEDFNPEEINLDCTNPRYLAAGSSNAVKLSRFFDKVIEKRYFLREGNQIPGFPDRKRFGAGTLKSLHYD

[6] = biological target: T3, STE20-related kinase adapter protein alpha (Homo sapiens, UniProt Q7RTN6)
T3 sequence (Q7RTN6 whole entry): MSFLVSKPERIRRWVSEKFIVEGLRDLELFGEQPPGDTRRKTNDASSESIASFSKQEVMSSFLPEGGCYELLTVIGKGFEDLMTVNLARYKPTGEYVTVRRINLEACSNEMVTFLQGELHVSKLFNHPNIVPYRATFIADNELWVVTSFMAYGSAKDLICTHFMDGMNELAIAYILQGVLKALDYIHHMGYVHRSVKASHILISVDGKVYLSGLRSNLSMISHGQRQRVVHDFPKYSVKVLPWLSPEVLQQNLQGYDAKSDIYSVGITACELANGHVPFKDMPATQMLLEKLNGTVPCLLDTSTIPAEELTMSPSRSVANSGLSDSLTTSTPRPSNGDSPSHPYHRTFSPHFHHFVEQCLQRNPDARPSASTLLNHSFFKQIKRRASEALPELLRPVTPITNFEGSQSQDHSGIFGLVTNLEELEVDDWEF

TGF-beta receptor type-1 = biological target: T4, TGF-beta receptor type-1 (Homo sapiens, UniProt P36897)
T4 sequence (P36897 whole entry): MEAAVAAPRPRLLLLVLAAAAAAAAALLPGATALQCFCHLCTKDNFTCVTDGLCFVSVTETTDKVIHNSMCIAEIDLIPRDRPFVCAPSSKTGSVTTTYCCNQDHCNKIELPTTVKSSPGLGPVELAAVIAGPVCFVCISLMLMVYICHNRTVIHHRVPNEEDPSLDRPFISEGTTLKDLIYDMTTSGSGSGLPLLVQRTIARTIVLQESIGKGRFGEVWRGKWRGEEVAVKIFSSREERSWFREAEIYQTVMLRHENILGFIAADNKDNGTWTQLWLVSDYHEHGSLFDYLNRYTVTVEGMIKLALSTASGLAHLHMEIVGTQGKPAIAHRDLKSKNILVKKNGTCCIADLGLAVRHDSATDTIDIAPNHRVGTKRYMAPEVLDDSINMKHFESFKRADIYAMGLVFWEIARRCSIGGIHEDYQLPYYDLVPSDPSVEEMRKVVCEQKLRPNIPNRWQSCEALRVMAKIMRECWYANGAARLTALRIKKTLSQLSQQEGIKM

Wee1-like protein kinase = Wee1-like protein kinase (Homo sapiens, UniProt P30291)
Wee1-like protein kinase, sequence (P30291 whole entry): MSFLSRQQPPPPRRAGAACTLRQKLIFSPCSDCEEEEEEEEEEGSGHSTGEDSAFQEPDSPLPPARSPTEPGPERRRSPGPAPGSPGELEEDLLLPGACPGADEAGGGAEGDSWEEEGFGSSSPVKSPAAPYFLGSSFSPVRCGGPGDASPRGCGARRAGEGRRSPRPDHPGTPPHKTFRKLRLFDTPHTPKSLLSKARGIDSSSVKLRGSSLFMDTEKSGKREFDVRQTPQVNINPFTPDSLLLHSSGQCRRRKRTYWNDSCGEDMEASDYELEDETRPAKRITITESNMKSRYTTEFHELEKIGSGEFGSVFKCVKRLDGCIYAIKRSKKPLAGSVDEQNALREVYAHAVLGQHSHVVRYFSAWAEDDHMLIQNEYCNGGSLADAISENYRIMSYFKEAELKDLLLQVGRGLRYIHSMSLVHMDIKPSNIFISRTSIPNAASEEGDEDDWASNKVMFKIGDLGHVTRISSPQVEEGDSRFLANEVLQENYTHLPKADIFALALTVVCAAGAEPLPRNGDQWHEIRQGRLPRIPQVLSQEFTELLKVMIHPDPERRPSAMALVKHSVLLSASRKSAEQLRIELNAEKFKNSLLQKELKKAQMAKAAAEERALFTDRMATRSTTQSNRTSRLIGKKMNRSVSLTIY

[7] = biological target: Tyrosine-protein kinase Yes (Homo sapiens, UniProt P07947)
Tyrosine-protein kinase Yes, sequence (P07947 whole entry): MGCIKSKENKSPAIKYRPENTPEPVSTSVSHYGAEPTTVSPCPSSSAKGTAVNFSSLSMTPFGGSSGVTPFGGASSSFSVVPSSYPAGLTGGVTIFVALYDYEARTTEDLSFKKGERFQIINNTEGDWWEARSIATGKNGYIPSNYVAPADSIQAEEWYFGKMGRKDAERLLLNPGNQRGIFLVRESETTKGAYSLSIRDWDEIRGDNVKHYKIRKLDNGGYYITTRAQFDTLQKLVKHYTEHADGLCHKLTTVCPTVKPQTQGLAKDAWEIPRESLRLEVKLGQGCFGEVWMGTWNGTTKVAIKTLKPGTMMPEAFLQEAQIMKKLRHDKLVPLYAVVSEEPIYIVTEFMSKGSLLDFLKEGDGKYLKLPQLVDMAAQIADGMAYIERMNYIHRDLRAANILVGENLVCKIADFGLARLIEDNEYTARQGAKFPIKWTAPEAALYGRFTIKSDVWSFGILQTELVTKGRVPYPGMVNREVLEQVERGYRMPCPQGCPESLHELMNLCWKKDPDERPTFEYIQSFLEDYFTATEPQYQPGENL
Also: in the data inactive means no Kd found up to 30 µM.

Bone morphogenetic protein receptor type-1B, sequence (O00238 whole entry): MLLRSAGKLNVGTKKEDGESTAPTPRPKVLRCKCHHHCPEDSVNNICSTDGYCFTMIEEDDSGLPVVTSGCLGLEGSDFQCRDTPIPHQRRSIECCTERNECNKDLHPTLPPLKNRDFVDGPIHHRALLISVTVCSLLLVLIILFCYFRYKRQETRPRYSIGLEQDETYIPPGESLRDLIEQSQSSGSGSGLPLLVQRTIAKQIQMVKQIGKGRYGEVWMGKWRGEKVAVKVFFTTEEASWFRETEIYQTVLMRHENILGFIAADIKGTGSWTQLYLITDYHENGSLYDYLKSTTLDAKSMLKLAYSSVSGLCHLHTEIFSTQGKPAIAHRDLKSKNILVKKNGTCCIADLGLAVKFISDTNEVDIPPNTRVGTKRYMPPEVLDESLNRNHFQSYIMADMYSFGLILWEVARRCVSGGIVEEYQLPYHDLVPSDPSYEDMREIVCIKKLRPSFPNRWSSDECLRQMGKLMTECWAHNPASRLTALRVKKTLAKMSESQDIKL
Citron Rho-interacting kinase, sequence (O14578 whole entry): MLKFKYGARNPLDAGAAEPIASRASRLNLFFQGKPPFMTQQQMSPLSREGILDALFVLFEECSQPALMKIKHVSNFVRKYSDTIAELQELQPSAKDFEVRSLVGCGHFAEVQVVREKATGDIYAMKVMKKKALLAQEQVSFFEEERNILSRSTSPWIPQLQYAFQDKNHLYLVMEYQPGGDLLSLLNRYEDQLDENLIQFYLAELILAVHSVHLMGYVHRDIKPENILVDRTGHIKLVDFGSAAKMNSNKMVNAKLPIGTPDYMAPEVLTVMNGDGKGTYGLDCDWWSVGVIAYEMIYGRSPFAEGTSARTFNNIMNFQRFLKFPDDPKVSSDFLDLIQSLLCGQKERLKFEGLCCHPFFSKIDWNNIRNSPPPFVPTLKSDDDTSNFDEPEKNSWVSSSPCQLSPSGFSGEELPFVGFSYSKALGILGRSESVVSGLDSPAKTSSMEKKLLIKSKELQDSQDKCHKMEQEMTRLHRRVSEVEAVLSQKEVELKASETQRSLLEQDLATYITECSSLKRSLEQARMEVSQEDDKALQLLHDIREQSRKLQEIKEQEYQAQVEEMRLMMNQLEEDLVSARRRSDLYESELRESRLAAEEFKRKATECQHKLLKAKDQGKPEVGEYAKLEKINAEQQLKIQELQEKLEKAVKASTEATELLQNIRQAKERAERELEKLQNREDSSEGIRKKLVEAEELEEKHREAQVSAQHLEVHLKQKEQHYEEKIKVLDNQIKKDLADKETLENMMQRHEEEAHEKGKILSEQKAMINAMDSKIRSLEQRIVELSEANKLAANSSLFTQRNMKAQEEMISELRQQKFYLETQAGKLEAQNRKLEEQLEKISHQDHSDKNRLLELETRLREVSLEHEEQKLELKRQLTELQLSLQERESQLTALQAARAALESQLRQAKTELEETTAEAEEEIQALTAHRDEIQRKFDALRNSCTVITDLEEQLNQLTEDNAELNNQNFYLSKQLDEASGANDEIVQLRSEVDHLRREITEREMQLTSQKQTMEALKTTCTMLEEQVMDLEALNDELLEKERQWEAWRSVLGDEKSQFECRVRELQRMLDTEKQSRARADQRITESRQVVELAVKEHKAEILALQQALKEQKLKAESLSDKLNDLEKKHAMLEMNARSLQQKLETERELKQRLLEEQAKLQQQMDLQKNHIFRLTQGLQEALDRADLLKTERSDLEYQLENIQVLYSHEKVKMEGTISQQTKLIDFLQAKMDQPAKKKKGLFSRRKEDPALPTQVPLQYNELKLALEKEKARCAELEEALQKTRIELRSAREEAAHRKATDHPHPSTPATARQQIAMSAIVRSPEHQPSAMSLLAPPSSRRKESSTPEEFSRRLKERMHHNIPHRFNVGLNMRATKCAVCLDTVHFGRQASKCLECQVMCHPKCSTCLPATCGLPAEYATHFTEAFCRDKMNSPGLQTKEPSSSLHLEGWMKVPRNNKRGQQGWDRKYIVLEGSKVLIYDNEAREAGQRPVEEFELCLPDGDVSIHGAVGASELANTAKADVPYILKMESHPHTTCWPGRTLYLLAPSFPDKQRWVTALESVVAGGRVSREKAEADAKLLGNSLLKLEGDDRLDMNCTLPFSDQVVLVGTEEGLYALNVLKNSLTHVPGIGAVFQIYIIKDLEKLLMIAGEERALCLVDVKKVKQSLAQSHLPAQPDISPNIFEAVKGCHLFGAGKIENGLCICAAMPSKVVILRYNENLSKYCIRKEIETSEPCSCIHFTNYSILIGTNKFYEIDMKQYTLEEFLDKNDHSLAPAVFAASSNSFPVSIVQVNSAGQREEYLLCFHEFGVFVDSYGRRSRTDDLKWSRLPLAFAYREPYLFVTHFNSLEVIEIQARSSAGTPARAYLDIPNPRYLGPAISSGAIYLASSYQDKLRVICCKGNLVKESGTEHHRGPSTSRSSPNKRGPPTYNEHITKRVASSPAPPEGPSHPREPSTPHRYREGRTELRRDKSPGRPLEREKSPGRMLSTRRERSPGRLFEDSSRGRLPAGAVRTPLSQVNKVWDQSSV

| SMILES | Kd [1] | Kd [2] | Kd (Ephrin type-A receptor 7) | Kd (Ephrin type-B receptor 4) | Kd [3] | Kd [4] | Kd [5] | Kd (Rab-like protein 3) | Kd [6] | Kd (TGF-beta receptor type-1) | Kd (Wee1-like protein kinase) | Kd [7] |
| --- | --- | --- | --- | --- | --- | --- | --- | --- | --- | --- | --- | --- |
| Cn1cc(-c2[nH]c3cc(NC(=O)[C@H](N)C4CCCCC4)cc4c3c2C=NNC4=O)cn1 | 2.01 µM (active) | 0.725 µM (active) | > 30 µM (inactive) | > 30 µM (inactive) | > 30 µM (inactive) | 3.21 µM (active) | > 30 µM (inactive) | > 30 µM (inactive) | > 30 µM (inactive) | > 30 µM (inactive) | 4.86 µM (active) | 0.623 µM (active) |
| COCCN1CCN(Cc2ccc(-c3n[nH]c4c3C(=O)c3c(NC(=O)NN5CCOCC5)cccc3-4)cc2)CC1 [RGB-286638] | > 30 µM (inactive) | 0.763 µM (active) | > 30 µM (inactive) | > 30 µM (inactive) | > 30 µM (inactive) | > 30 µM (inactive) | 0.37 µM (active) | > 30 µM (inactive) | > 30 µM (inactive) | > 30 µM (inactive) | > 30 µM (inactive) | > 30 µM (inactive) |
| C=CC(=O)Nc1cccc(Nc2nc(Nc3ccc(N4CCN(C(C)=O)CC4)cc3OC)ncc2C(F)(F)F)c1 [ROCILETINIB] | > 30 µM (inactive) | > 30 µM (inactive) | > 30 µM (inactive) | > 30 µM (inactive) | > 30 µM (inactive) | > 30 µM (inactive) | > 30 µM (inactive) | > 30 µM (inactive) | > 30 µM (inactive) | > 30 µM (inactive) | > 30 µM (inactive) | > 30 µM (inactive) |
| Cc1cc(-c2cc(OC(=O)c3ccccc3)ccc2Cl)cc2nnc(Nc3ccc(OCCN4CCCC4)cc3)nc12 [TG100-801] | > 30 µM (inactive) | > 30 µM (inactive) | > 30 µM (inactive) | 0.711 µM (active) | > 30 µM (inactive) | > 30 µM (inactive) | > 30 µM (inactive) | > 30 µM (inactive) | > 30 µM (inactive) | > 30 µM (inactive) | > 30 µM (inactive) | 4.43 µM (active) |
| COc1cc2nccc(Oc3ccc(NC(=O)C4(C(=O)Nc5ccc(F)cc5)CC4)cc3)c2cc1OC [CABOZANTINIB] | > 30 µM (inactive) | > 30 µM (inactive) | > 30 µM (inactive) | > 30 µM (inactive) | > 30 µM (inactive) | > 30 µM (inactive) | > 30 µM (inactive) | > 30 µM (inactive) | > 30 µM (inactive) | > 30 µM (inactive) | > 30 µM (inactive) | > 30 µM (inactive) |
| C[C@@H]1COC(Nc2ccc3ncnc(Nc4ccc(OCc5nccs5)c(Cl)c4)c3c2)=N1 [VARLITINIB] | > 30 µM (inactive) | > 30 µM (inactive) | > 30 µM (inactive) | > 30 µM (inactive) | > 30 µM (inactive) | > 30 µM (inactive) | > 30 µM (inactive) | > 30 µM (inactive) | > 30 µM (inactive) | > 30 µM (inactive) | > 30 µM (inactive) | 0.321 µM (active) |
| Cc1cc(Nc2nc(N[C@@H](C)c3ncc(F)cn3)ncc2Cl)n[nH]1 [AZD-1480] | > 30 µM (inactive) | > 30 µM (inactive) | > 30 µM (inactive) | > 30 µM (inactive) | > 30 µM (inactive) | > 30 µM (inactive) | > 30 µM (inactive) | > 30 µM (inactive) | 0.316 µM | > 30 µM (inactive) | > 30 µM (inactive) | > 30 µM (inactive) |
